Experimental data from US9802960B2 (MILLENNIUM PHARMACEUTICALS, INC., priority 2014, dated 2017).

Each compound was assayed against Human VPS34 (Homo sapiens (Human), UniProt Q8NEB9) (assay: Human VPS34 enzyme assay (Adapta TR-FRET)). Details: compound concentration 1.11 μM.
Assay type: biochemical

Human VPS34, sequence (Q8NEB9 whole entry): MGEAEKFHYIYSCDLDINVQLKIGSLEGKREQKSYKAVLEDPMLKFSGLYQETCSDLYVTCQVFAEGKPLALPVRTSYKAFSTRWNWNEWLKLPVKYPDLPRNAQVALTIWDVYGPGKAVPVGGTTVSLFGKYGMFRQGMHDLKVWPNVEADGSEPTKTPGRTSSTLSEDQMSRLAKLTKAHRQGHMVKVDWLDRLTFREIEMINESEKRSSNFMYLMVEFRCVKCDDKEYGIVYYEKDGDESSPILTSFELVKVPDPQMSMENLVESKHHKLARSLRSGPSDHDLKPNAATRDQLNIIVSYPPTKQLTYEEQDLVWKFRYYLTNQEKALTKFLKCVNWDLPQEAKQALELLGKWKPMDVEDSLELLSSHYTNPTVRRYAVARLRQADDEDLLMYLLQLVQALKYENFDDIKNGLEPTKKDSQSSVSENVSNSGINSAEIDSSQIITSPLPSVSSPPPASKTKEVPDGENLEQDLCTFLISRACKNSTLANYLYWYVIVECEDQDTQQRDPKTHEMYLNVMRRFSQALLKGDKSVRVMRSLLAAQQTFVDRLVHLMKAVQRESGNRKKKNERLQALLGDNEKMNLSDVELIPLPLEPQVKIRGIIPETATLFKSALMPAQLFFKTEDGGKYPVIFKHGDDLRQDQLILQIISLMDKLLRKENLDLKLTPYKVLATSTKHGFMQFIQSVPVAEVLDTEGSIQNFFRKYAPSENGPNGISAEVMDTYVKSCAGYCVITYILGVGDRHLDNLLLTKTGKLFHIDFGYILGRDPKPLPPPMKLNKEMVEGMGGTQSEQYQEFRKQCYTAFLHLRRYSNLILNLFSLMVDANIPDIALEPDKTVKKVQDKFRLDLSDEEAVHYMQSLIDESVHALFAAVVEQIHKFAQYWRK

Structure (SMILES)	Percent Inhibition [%]
CC(=O)Nc1cc(-c2cnc(Cl)c(NS(=O)(=O)c3cn(C)nc3C(F)(F)F)c2C)ccn1 [Compound I-493, N-[6-chloro-4-methyl-5-({[1-methyl-3-(trifluoromethyl)-1H-pyrazol-4-yl]sulfonyl}amino)-3,4′-bipyridin-2′-yl]acetamide]	99

Same assay, conditions: compound concentration 1.11 μM; read-out: Percent Inhibition

Structure (SMILES)	inhibition at 1.11 µM [%]
Cc1c(-c2ccnc(NC(=O)C3CC3)c2)cnc(Cl)c1NS(=O)(=O)c1ccc(F)cc1F [Compound I-308, N-(6-chloro-5-{[(2,4-difluorophenyl)sulfonyl]amino}-4-methyl-3,4′-bipyridin-2′-yl)cyclopropane carboxamide]	> 99
Cc1nccc(Nc2cc(-c3cc(NS(=O)(=O)c4ccc(F)cc4F)c4ccnn4c3)ccn2)n1 [Compound I-486, 2,4-difluoro-N-(6-{2-[(2-methylpyrimidin-4-yl)amino]pyridin-4-yl}pyrazolo[1,5-a]pyridin-4-yl)benzenesulfonamide]	84
CC(=O)Nc1cc(-c2cnc(N(C)C)c(S(=O)(=O)NC(C)(C)C)c2C)ccn1 [Compound I-487, N-[5-(tert-butylsulfamoyl)-6-(dimethylamino)-4-methyl-3,4′-bipyridin-2′-yl]acetamide]	71
CC(=O)Nc1cc(-c2cnc(Cl)c(NS(=O)(=O)N3CCCC3)c2C)ccn1 [Compound I-488, N-{6-chloro-4-methyl-5-[(pyrrolidin-1-ylsulfonyl)amino]-3,4′-bipyridin-2′-yl}acetamide]	> 99
CC(=O)Nc1cc(-c2cnc(N)c(N3CCCNS3(=O)=O)c2)ccn1 [Compound I-490, N-[6-amino-5-(1,1-dioxido-1,2,6-thiadiazinan-2-yl)-3,4′-bipyridin-2′-yl]acetamide]	> 99
CC(=O)Nc1cc(-c2cnc(N(C)C)c(S(=O)(=O)Nc3ccc(F)cc3F)c2)ccn1 [Compound I-491, N-{5-[(2,4-difluorophenyl)sulfamoyl]-6-(dimethylamino)-3,4′-bipyridin-2′-yl}acetamide]	98
CC(=O)Nc1cc(-c2cnc(C)c(OCC3CC3)c2)ccn1 [Compound I-492, N-[5-(cyclopropylmethoxy)-6-methyl-3,4′-bipyridin-2′-yl]acetamide]	86
CC(=O)Nc1cc(-c2cnc(C)c(NS(=O)(=O)N(C)c3ccccc3)c2)ccn1 [Compound I-494, N-(6-methyl-5-{[methyl(phenyl)sulfamoyl]amino}-3,4′-bipyridin-2′-yl)acetamide]	91
Cc1nccc(Nc2cc(-c3cnc(C)c(C(=O)N4CC(C)(C)C4)c3)ccn2)n1 [Compound I-495, (3,3-dimethylazetidin-1-yl){6-methyl-2′-[(2-methylpyrimidin-4-yl)amino]-3,4′-bipyridin-5-yl}methanone]	83

Each compound was assayed on PC9 cell line (assay: Cellular assay for anti-proliferative activity in combination with a second therapeutic agent (Cell Titer Glo), PC9). Details: in combination with AZD9291, call from Combination Index.
Assay type: cell-based, human
Experimental: Cells were plated in […] of media in 384 well plates at 1,000 cells per well (A431, PC9, and NCI-H1650 cell lines), 1,500 cells per well (NCI-H1975) or 2,000 cells per well ([…]). The plates were incubated for 24 hrs at 37° C., 6% CO2. The test compounds (see Table 38 below) were diluted serially, and 62.5 nL of each compound solution (or DMSO, if it is a single agent experiment) is added so the total added to the cells is 125 nL. Cell plates were incubated for 72 hrs at 37° C., 6% CO2. Cell Titer Glo reagent (Promega) was added. The plates were then incubated for 10 minutes at room temperature before luminescence was read on a plate reader such as the Pherastar Plus, Pherastar FS, or LEADSeeker imaging system.
Bliss antagonism was defined similarly.
Bliss dependence was defined as the percent cell survival at a certain dose combination divided by the percent cell survival predicted by Bliss independence. More specifically, the Bliss dependence is vAB/(vA*vB), where vAB is the viability with drug A and drug B added, while vA and vB are the viabilities with each drug alone. […]
Another way to evaluate additivity is through consideration of Loewe additivity. […] For Bliss independence, the boundary between additivity and synergy must be measured. […]
Synergy can also be measured by nonlinear blending synergy. […]

Structure (SMILES)	Meaning
Cc1c(-c2ccnc(NC(=O)C3CC3)c2)cnc(Cl)c1NS(=O)(=O)c1ccc(F)cc1F [Compound I-308, N-(6-chloro-5-{[(2,4-difluorophenyl)sulfonyl]amino}-4-methyl-3,4′-bipyridin-2′-yl)cyclopropane carboxamide]	SubAdditivity
